# Experimental data published in patent US7820665B2, “Imidazopyridazine inhibitors of PI3 kinase for cancer treatment” (Amgen Inc., priority 2007, dated 2010).
# Read-outs that look alike come from different tables or passages of the source.
# How the values were obtained:
# PI3Kα = biological target: T1, PI3Kα (Homo sapiens, UniProt P42336); assay: In vitro PI3 kinase enzyme assay (PI3K ATPLoss); type: biochemical; settings: recombinant p110α/p85, residual ATP by bioluminescence
# T1 construct: Full length p110 subunits of PI3K α, β and δ, N-terminally labeled with polyHis tag; polyHis (N); made in house; host or cells: Sf9 insect cells (baculovirus)
# Method: Full length p110 subunits of PI3K α, β and δ, N-terminally labeled with polyHis tag, can be co-expressed with p85 with Baculo virus expression vectors in sf9 insect cells. P110/p85 heterodimers can be purified by sequential Ni-NTA, Q-HP, Superdex-100 chromatography. Purified α, β and δ isozymes can be stored at −20° C. in 20 mM Tris, pH 8, 0.2M NaCl, 50% glycerol, 5 mM DTT, 2 mM Na cholate. Truncated PI3Kγ, residues 114-1102, N-terminally labeled with polyHis tag, can be expressed with Baculo virus in Hi5 insect cells. The γ isozyme can be purified by sequential Ni-NTA, Superdex-200, Q-HP chromatography. The γ isozyme can be stored frozen at −80° C. in NaH2PO4, pH 8, 0.2M NaCl, 1% ethylene glycol, 2 mM β-mercaptoethanol.
# PI3K enzyme assays (alpha, beta, delta and gamma) can be performed in 25 μL with the above final concentrations of components in white polyproplyene plates. Phosphatidyl inositol phosphoacceptor, PtdIns(4,5)P2 (e.g. P4508) can be obtained from Echelon Biosciences, Salt Lake City, Utah. The ATPase activity of the alpha and gamma isozymes may not be greatly stimulated by PtdIns(4,5)P2 under these conditions, it can be omitted from the assay of these isozymes. Test compounds can be dissolved in DMSO and diluted with three-fold serial dilutions. The compound in DMSO (1 μL) may be added per test well, and the inhibition relative to reactions containing no compound, with and without enzyme can be determined. After assay incubation at RT, the reaction can be stopped and residual ATP can be determined by addition of an equal volume of a commercial ATP bioluminescence kit (Perkin Elmer EasyLite, Perkin Elmer, Waltham, Mass.) according to the manufacturer's instructions, and detected using an Analyst GT luminometer.
# [1] = tested on: Akt phosphorylation at Ser473 in HCT116 cells; assay: Cell-based phospho-AKT Ser473 assay (HCT116 Cell), MSD sandwich immunoassay;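 further: IGF-1 added at 100 ng/mL for 15 min after compound treatment, electrochemiluminescent readout of phospho-Akt, DMSO-only wells define maximum signal, IC50 reflects inhibition of phosphorylation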
# Excerpt: This assay determines the ability of a compound to inhibit the phosphorylation of Serine 472 in Akt using a MSD based sandwich immunoassay (Meso Scale Detection, Meso Scale Discovery (MSD), Gaithersburg, Md.). HCT116 human colon carcinoma cell lines can be grown in McCoy's 5A growth medium (GIBCO, Carlsbad, Calif.) containing 10% FBS (GIBCO, Carlsbad, Calif.) and X1 Penicillin-streptomycin-glutamine (GIBCO, Carlsbad, Calif.). Prior to the assay, cells can be detached from the culture flask with trypsin, and re-suspended in complete media to give a final concentration of 1.6×10^5 cells per mL. Aliquots (100 μl) of the HCT116 cell suspension can be seeded into each well of a 96 well tissue culture plate to give a final density of 16,000 cells per well. Cells can then be incubated overnight at 37° C.
# The following day the cells can be treated with serially diluted test compounds and incubated for 2 hours at 37° C. The culture media on the HCT 116 cells can be replaced with 189 μL McCoys media, supplemented with 0.1% BSA (ICN Biomedicals, Inc., Costa Mesa, Calif.). […] Aliquots (1 μL) of serially-diluted compounds can be transferred to 96 well tissue culture plates containing the HCT 116 cells. […] As a maximum response control, wells can contain 0.5% DMSO in place of compound. The plates can be mixed at 700 rpm for 2 min to ensure even distribution of the test compound and incubated for 2 hours at 37° C. Cells can then be stimulated with insulin-like growth factor 1 (Sigma, St Louis, Mo.) at final concentration of 100 ng/mL for 15 minutes at 37° C. The media can then be removed and the cells treated with 80 μL cell-lysis buffer (MSD) containing a cocktail of protease and phosphatase inhibitors for one hour at 4° C.
# 25 μL Cell lysate can then be transferred to pre-blocked MSD assay plates pre-coated with a capture antibody specific for Akt, and the plates can be incubated for 2 hours at room temperature. The cell lysates can then be removed and plates can then be washed four times with 200 μl per well of Tris wash buffer (500 mM Tris, PH 7.5, 1.5 M NaCl, 0.2% Tween-20). Subsequently cells can be incubated for 1 hour at room temperature with a 25 μL solution containing the detection antibody, anti-phospho Akt (Ser 473) labeled with an electrochemiluminescent compound (Meso Scale Discovery SULPHO-TAG™ label, MSD, Gaithersburg, Md.). The detection antibody can be removed and plates can then be washed four times with 200 μL per well of Tris wash buffer. An aliquot of 150 μL of diluted MSD read buffer can then be applied to each well, and the electrochemiluminescent signal can be measured using a MSD SECTOR™ plate reader (Meso Scale Discovery, Gaithersburg, Md.). This instrument measures the intensity of emitted light to determine a quantitative measure of phosphorylated Akt in each well. The dose-response data obtained with each compound can be analyzed and the IC50 inhibition of Akt phosphorylation at Ser473 can be calculated.
# [2] = tested on: phosphorylation of Akt at Serine 473 in U87 MG cells; assay: pAkt AlphaScreen (U87 Cell); type: cell-based; settings: 2 h compound, pAkt Ser473 AlphaScreen
# Method: The pAkt AlphaScreen® assay (PerkinElmer, Waltham, Mass.) determines whether there is phosphorylation of Akt at Serine 473 by recruitment of a phosphospecific antibody. This assay was performed using U87 MG cells. The U87 growth media consists of MEM (Gibco, Carlsbad, Calif.) supplemented with 10% FBS (Gibco), 1× Non-Essential Amino Acids (Gibco) and 1× Penicillin/Streptomycin/Glutamine (Gibco). The cells were maintained weekly using 0.05% Trypsin (Gibco) and replated in 150 mm TC-Treated Culture Dishes (Corning, Corning, N.Y.).
# The first day of the assay, the adherent cells were trypsinized, media was added to the loose cells and cells were mixed to a homogenous mixture. 0.5 ml of the homogenous mixture was counted on the Beckman Coulter® Vi-CELL™ XR (Fullerton, Calif.). 50 frames of cells were counted and the number of viable cells was determined. The cells were then diluted to 0.25 million cells per ml, and centrifuged at 200 rcf for 5 minutes. The media was removed and the cells were reconstituted in fresh media for plating. The cells were plated at 20 μl per well on the PerkinElmer® Flexprop PLUS in Low Volume 384 Well White Tissue Culture Plates (Corning) with a final cell density of 5K cells per well. The plates were incubated overnight at 37° Celsius, 5% CO2.
# On the second day, the compound plates were prepared, the cells were treated with compound and the pAkt reaction mix was added to the cell lysate. 384 well compound plates were prepared containing 1 μl of compound per well starting at 5 mM and diluted 1:2 across the row, resulting in a 22 well serial dilution. 39 μl of growth media was added to the compound plate in rows 1-22 using the PerkinElmer® FlexDrop PLUS resulting in a DMSO concentration of 2.5%. The cell plates and diluted compound plates were put onto the VELOCITY11™ VPREP™ 384 ST where the compound plate was mixed and 5 μl of serially diluted compound or controls was added to the cell plate. The final concentration of the compounds was 25 μM serially diluted to 11.9 pM in 0.5% DMSO. The cell plates were then incubated with compound for two hours at 37° Celsius, 5% CO2. After two hours, the media in the cell plates was aspirated using the BioTek® ELx405HT plate washer (Winooski, Vt.) removing the majority of media and compound without disturbing the adherent U87 cells. The following assay reagents are components of the SureFire® Akt (Ser 473) Phosphorylation 50K Point Kit (TGR BioSciences, Adelaide, Australia) and an IgG Detection Kit (PerkinElmer, Waltham, Mass.). 5 μl of 1× Lysis Buffer was added to each well using the PerkinElmer® FlexDrop PLUS. The plates were then incubated at room temperature on a shaker for ten minutes. The AlphaScreen® reaction was prepared under low light conditions (subdued or green light) including p-Akt (Ser 473) Reaction Buffer, Dilution Buffer, Activation Buffer, Acceptor Beads and Donor Beads at a ratio of 40:20:10:1:1 respectively. The AlphaScreen® reaction was added to the cell lysate at 6 μl per well using the PerkinElmer® FlexDrop PLUS. The plates were placed in a humid environment to reduce edge effects and incubated overnight at room temperature with restricted air flow in the dark.
# On the final day of the experiment, the plates were read on the PerkinElmer® EnVision™ 2103 Multilable Reader using the standard AlphaScreen® readout. The POC is calculated and the data is analyzed to report the IC50 IP for pAkt at Serine 473.
# [3] = Homo sapiens, HCT-116, 2 h, read-out: HCT116 Cell IC50, HCT116 cells, 2 h compound, IGF-1 stimulation, pAkt Ser473
# [4] = read-out: HCT116 Cell IC50, HCT116 cells, 2 h compound, IGF-1 stimulation, pAkt Ser473
# T1 sequence (P42336 whole entry, species assumed): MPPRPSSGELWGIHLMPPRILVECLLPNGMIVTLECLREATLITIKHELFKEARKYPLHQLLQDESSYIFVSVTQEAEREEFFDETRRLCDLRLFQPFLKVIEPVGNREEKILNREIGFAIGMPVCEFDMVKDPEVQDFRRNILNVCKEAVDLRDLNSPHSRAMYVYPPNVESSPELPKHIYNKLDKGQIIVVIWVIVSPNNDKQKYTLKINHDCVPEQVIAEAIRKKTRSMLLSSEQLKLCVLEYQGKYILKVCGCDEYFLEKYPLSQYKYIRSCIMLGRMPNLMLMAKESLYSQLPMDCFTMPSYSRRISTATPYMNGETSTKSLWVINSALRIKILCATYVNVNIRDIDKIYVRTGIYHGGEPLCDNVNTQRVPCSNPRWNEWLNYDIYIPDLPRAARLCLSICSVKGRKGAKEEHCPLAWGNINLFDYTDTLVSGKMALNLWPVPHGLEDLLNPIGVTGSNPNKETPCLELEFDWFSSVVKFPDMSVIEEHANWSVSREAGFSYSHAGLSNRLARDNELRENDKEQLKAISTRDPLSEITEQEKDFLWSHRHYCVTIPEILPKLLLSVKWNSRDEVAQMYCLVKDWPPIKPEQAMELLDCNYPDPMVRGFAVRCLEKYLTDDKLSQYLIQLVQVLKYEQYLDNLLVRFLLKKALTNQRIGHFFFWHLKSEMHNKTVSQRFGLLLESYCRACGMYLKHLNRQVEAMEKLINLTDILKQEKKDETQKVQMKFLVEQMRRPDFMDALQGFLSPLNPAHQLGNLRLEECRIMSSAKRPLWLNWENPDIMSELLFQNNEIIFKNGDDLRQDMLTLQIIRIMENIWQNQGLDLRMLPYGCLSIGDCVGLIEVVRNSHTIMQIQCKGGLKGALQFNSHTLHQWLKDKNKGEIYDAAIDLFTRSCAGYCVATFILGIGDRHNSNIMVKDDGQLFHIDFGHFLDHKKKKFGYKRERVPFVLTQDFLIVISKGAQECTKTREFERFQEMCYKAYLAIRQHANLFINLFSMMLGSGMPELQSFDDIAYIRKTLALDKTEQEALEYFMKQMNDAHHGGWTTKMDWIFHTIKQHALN
# T1 sequence (P27986 whole entry partner, species assumed): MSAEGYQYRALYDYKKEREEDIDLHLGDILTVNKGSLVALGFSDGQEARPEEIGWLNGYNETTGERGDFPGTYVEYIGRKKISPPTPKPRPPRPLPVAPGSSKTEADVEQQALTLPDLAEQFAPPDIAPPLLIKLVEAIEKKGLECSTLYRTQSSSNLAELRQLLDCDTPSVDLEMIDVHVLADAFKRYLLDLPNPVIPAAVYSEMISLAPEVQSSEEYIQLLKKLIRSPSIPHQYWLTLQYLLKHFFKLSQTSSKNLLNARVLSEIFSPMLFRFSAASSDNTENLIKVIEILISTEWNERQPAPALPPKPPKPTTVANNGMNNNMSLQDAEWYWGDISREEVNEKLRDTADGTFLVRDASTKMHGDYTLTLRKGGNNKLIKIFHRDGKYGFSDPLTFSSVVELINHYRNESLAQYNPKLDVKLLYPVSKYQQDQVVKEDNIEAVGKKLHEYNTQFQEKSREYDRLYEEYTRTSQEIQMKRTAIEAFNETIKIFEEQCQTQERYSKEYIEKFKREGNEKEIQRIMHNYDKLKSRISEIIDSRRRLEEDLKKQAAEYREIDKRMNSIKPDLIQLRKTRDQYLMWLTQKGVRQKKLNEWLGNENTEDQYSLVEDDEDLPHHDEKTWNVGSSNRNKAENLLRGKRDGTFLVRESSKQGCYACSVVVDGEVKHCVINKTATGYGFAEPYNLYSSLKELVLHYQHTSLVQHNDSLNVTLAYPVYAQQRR
Structure (SMILES),IC50 (PI3Kα),"IC50 [1, 3]","IC50 ([2]; Homo sapiens, U-87 MG, 2 h)","IC50 [1, 4]",IC50 [2]
"CC(=O)Nc1cn2nc(-c3cnc(Cl)c(NS(=O)(=O)c4ccc(F)cc4)c3)ccc2n1 [Example 12, N-(6-(6-chloro-5-(4-fluorophenylsulfonamido)pyridin-3-yl)imidazo[1,2-b]pyridazin-2-yl)acetamide]",7 nM,31 nM,14 nM,,
"Nc1cn2nc(-c3cnc(Cl)c(NS(=O)(=O)c4ccc(F)cc4)c3)ccc2n1 [Example 36, N-(5-(2-Aminoimidazo[1,2-b]pyridazin-6-yl)-2-chloropyridin-3-yl)-4-fluorobenzenesulfonamide]",83 nM,,415 nM,2430 nM,
"CC(=O)Nc1cn2nc(-c3cnc(Cl)c(NS(=O)(=O)c4ccc(F)cc4Cl)c3)ccc2n1 [Example 40, N-(6-(6-Chloro-5-(2-chloro-4-fluorophenylsulfonamido)pyridin-3-yl)imidazo[1,2-b]pyridazin-2-yl)acetamide]",5 nM,55 nM,21 nM,,
"CNC(C)c1ccc(S(=O)(=O)Nc2cc(-c3ccc4nc(NC(C)=O)cn4n3)cnc2Cl)cc1 (single isomer, unassigned) [Example 39, N-(6-(6-chloro-5-(4-(1-(methylamino)ethyl)phenylsulfonamido)pyridin-3-yl)imidazo[1,2-b]pyridazin-2-yl)acetamide]",8 nM,,,105 nM,28 nM

# Results, then the molecule that gave them:
IC50 (PI3Kα),"IC50 [1, 3]","IC50 ([2]; Homo sapiens, U-87 MG, 2 h)","IC50 [1, 4]",IC50 [2],Structure (SMILES)
7 nM,24 nM,15 nM,,,"CC(=O)Nc1cn2nc(-c3cnc(Cl)c(NS(=O)(=O)c4cccc(OC(F)F)c4)c3)ccc2n1 [Example 33, N-(6-(6-Chloro-5-(3-(difluoromethoxy)phenylsulfonamido)pyridin-3-yl)imidazo[1,2-b]pyridazin-2-yl)acetamide]"
6 nM,49 nM,34 nM,,,"CC(=O)Nc1cn2nc(-c3cnc(Cl)c(NS(=O)(=O)c4ccc(C(C)(C)O)cc4)c3)ccc2n1 [Example 35, N-(6-(6-Chloro-5-(4-(2-hydroxypropan-2-yl)phenylsulfonamido)pyridin-3-yl)imidazo[1,2-b]pyridazin-2-yl)acetamide]"
6 nM,124 nM,31 nM,,,"CNC(C)c1ccc(S(=O)(=O)Nc2cc(-c3ccc4nc(NC(C)=O)cn4n3)cnc2Cl)cc1 (single isomer, unassigned) [Example 38, N-(6-(6-chloro-5-(4-(1-(methylamino)ethyl)phenylsulfonamido)pyridin-3-yl)imidazo[1,2-b]pyridazin-2-yl)acetamide]"
6 nM,75 nM,47 nM,,,"CC(=O)Nc1cn2nc(-c3cnc(Cl)c(NS(=O)(=O)N4CCOCC4)c3)ccc2n1 [Example 41, N-(6-(6-Chloro-5-(morpholine-4-sulfonamido)pyridin-3-yl)imidazo[1,2-b]pyridazin-2-yl)acetamide]"
9 nM,,118 nM,46 nM,,"CC(=O)Nc1cn2cc(-c3cnc(Cl)c(NS(=O)(=O)c4ccc(F)cc4)c3)ccc2n1 [Example 28, N-(6-(6-Chloro-5-(4-fluorophenylsulfonamido)pyridin-3-yl)imidazo[1,2-a]pyridin-2-yl)acetamide]"
